Results reported in the NIST ThermoML archive (doi:10.1021/je500696p).

Tests used:
[1] = xn = mol fraction of the nth substance listed; conditions: 100 kPa, Liquid, Vibrating tube method
[2] = excess molar enthalpy (molar enthalpy of mixing); xn = mol fraction of the nth substance listed; conditions: 100 kPa, Liquid, Calvet calorimetry

CCCC[N+](C)(C)C.O=S(=O)([N-]S(=O)(=O)C(F)(F)F)C(F)(F)F [butyltrimethylammonium bis(trifluoromethylsulfonyl)imide] + CN(C)C=O
Conditions | excess molar enthalpy [kcal/mol] | mass density [kg/m3]
[1], 293.15 K, x2 = 0 | – | 1397.1
[1], 293.15 K, x2 = 0.1268 | – | 1379.7
[1], 293.15 K, x2 = 0.2011 | – | 1367.7
[1], 293.15 K, x2 = 0.3028 | – | 1348.7
[1], 293.15 K, x2 = 0.3824 | – | 1331.3
[1], 293.15 K, x2 = 0.5078 | – | 1297.4
[1], 293.15 K, x2 = 0.6249 | – | 1255.8
[1], 293.15 K, x2 = 0.7548 | – | 1191.6
[1], 293.15 K, x2 = 0.8764 | – | 1101.3
[1], 293.15 K, x2 = 0.9157 | – | 1061.9
[1], 295.15 K, x2 = 0 | – | 1395.3
[1], 295.15 K, x2 = 0.1268 | – | 1377.9
[1], 295.15 K, x2 = 0.2011 | – | 1365.9
[1], 295.15 K, x2 = 0.3028 | – | 1346.9
[1], 295.15 K, x2 = 0.3824 | – | 1329.5
[1], 295.15 K, x2 = 0.5078 | – | 1295.6
[1], 295.15 K, x2 = 0.6249 | – | 1253.9
[1], 295.15 K, x2 = 0.7548 | – | 1189.7
[1], 295.15 K, x2 = 0.8764 | – | 1099.4
[1], 295.15 K, x2 = 0.9157 | – | 1060
[1], 298.15 K, x2 = 0 | – | 1392.7
[1], 298.15 K, x2 = 0.1268 | – | 1375.3
[1], 298.15 K, x2 = 0.2011 | – | 1363.2
[1], 298.15 K, x2 = 0.3028 | – | 1344.2
[1], 298.15 K, x2 = 0.3824 | – | 1326.8
[1], 298.15 K, x2 = 0.5078 | – | 1292.8
[1], 298.15 K, x2 = 0.6249 | – | 1251.2
[1], 298.15 K, x2 = 0.7548 | – | 1186.8
[1], 298.15 K, x2 = 0.8764 | – | 1096.5
[1], 298.15 K, x2 = 0.9157 | – | 1057.1
[1], 303.15 K, x2 = 0 | – | 1388.3
[1], 303.15 K, x2 = 0.1268 | – | 1370.8
[1], 303.15 K, x2 = 0.2011 | – | 1358.8
[1], 303.15 K, x2 = 0.3028 | – | 1339.7
[1], 303.15 K, x2 = 0.3824 | – | 1322.2
[1], 303.15 K, x2 = 0.5078 | – | 1288.2
[1], 303.15 K, x2 = 0.6249 | – | 1246.5
[1], 303.15 K, x2 = 0.7548 | – | 1182.1
[1], 303.15 K, x2 = 0.8764 | – | 1091.8
[1], 303.15 K, x2 = 0.9157 | – | 1052.4
[1], 308.15 K, x2 = 0 | – | 1384
[1], 308.15 K, x2 = 0.1268 | – | 1366.4
[1], 308.15 K, x2 = 0.2011 | – | 1354.3
[1], 308.15 K, x2 = 0.3028 | – | 1335.2
[1], 308.15 K, x2 = 0.3824 | – | 1317.7
[1], 308.15 K, x2 = 0.5078 | – | 1283.6
[1], 308.15 K, x2 = 0.6249 | – | 1241.8
[1], 308.15 K, x2 = 0.7548 | – | 1177.4
[1], 308.15 K, x2 = 0.8764 | – | 1087
[1], 308.15 K, x2 = 0.9157 | – | 1047.6
[1], 313.15 K, x2 = 0 | – | 1379.6
[1], 313.15 K, x2 = 0.1268 | – | 1362
[1], 313.15 K, x2 = 0.2011 | – | 1349.9
[1], 313.15 K, x2 = 0.3028 | – | 1330.7
[1], 313.15 K, x2 = 0.3824 | – | 1313.1
[1], 313.15 K, x2 = 0.5078 | – | 1279
[1], 313.15 K, x2 = 0.6249 | – | 1237.2
[1], 313.15 K, x2 = 0.7548 | – | 1172.7
[1], 313.15 K, x2 = 0.8764 | – | 1082.3
[1], 313.15 K, x2 = 0.9157 | – | 1042.8
[1], 318.15 K, x2 = 0 | – | 1375.2
[1], 318.15 K, x2 = 0.1268 | – | 1357.6
[1], 318.15 K, x2 = 0.2011 | – | 1345.4
[1], 318.15 K, x2 = 0.3028 | – | 1326.2
[1], 318.15 K, x2 = 0.3824 | – | 1308.6
[1], 318.15 K, x2 = 0.5078 | – | 1274.5
[1], 318.15 K, x2 = 0.6249 | – | 1232.6
[1], 318.15 K, x2 = 0.7548 | – | 1168
[1], 318.15 K, x2 = 0.8764 | – | 1077.5
[1], 318.15 K, x2 = 0.9157 | – | 1038.1
[1], 323.15 K, x2 = 0 | – | 1370.9
[1], 323.15 K, x2 = 0.1268 | – | 1353.2
[1], 323.15 K, x2 = 0.2011 | – | 1341
[1], 323.15 K, x2 = 0.3028 | – | 1321.8
[1], 323.15 K, x2 = 0.3824 | – | 1304.1
[1], 323.15 K, x2 = 0.5078 | – | 1269.9
[1], 323.15 K, x2 = 0.6249 | – | 1227.9
[1], 323.15 K, x2 = 0.7548 | – | 1163.3
[1], 323.15 K, x2 = 0.8764 | – | 1072.8
[1], 323.15 K, x2 = 0.9157 | – | 1033.3
[1], 328.15 K, x2 = 0 | – | 1366.6
[1], 328.15 K, x2 = 0.1268 | – | 1348.8
[1], 328.15 K, x2 = 0.2011 | – | 1336.6
[1], 328.15 K, x2 = 0.3028 | – | 1317.3
[1], 328.15 K, x2 = 0.3824 | – | 1299.7
[1], 328.15 K, x2 = 0.5078 | – | 1265.4
[1], 328.15 K, x2 = 0.6249 | – | 1223.3
[1], 328.15 K, x2 = 0.7548 | – | 1158.6
[1], 328.15 K, x2 = 0.8764 | – | 1068
[1], 328.15 K, x2 = 0.9157 | – | 1028.6
[1], 333.15 K, x2 = 0 | – | 1362.3
[1], 333.15 K, x2 = 0.1268 | – | 1344.5
[1], 333.15 K, x2 = 0.2011 | – | 1332.3
[1], 333.15 K, x2 = 0.3028 | – | 1312.9
[1], 333.15 K, x2 = 0.3824 | – | 1295.2
[1], 333.15 K, x2 = 0.5078 | – | 1260.8
[1], 333.15 K, x2 = 0.6249 | – | 1218.7
[1], 333.15 K, x2 = 0.7548 | – | 1153.9
[1], 333.15 K, x2 = 0.8764 | – | 1063.3
[1], 333.15 K, x2 = 0.9157 | – | 1023.8
[2], 308.15 K, x2 = 0.1285 | -0.0987 | –
[2], 308.15 K, x2 = 0.2488 | -0.167 | –
[2], 308.15 K, x2 = 0.2496 | -0.168 | –
[2], 308.15 K, x2 = 0.2543 | -0.168 | –
[2], 308.15 K, x2 = 0.3983 | -0.232 | –
[2], 308.15 K, x2 = 0.5182 | -0.272 | –
[2], 308.15 K, x2 = 0.5211 | -0.272 | –
[2], 308.15 K, x2 = 0.6283 | -0.284 | –
[2], 308.15 K, x2 = 0.7679 | -0.253 | –
[2], 308.15 K, x2 = 0.889 | -0.162 | –
[2], 313.15 K, x2 = 0.1226 | -0.0961 | –
[2], 313.15 K, x2 = 0.2487 | -0.167 | –
[2], 313.15 K, x2 = 0.261 | -0.174 | –
[2], 313.15 K, x2 = 0.3939 | -0.232 | –
[2], 313.15 K, x2 = 0.5209 | -0.273 | –
[2], 313.15 K, x2 = 0.5249 | -0.275 | –
[2], 313.15 K, x2 = 0.625 | -0.286 | –
[2], 313.15 K, x2 = 0.7717 | -0.247 | –
[2], 313.15 K, x2 = 0.8796 | -0.174 | –
[2], 323.15 K, x2 = 0.129 | -0.102 | –
[2], 323.15 K, x2 = 0.2459 | -0.169 | –
[2], 323.15 K, x2 = 0.2473 | -0.169 | –
[2], 323.15 K, x2 = 0.3807 | -0.229 | –
[2], 323.15 K, x2 = 0.5174 | -0.278 | –
[2], 323.15 K, x2 = 0.5224 | -0.279 | –
[2], 323.15 K, x2 = 0.6286 | -0.291 | –
[2], 323.15 K, x2 = 0.7693 | -0.26 | –
[2], 323.15 K, x2 = 0.8804 | -0.176 | –
